PMC6348443 (Journal of Medicinal Chemistry, 2018)
Counter-ions that a name gives are not always drawn.

How the values were obtained:
[1] = test system: male CD1 mice; test: acetic acid-induced writhing assay after sc administration; format: in vivo, mouse; details: for ED50: Mus musculus, 0.5 h, read-out: ED50 (95% CI), mice, sc, inhibition of writhing 30 min after drug administration; for ED50 (95% CI): mice, inhibition of writhing 30 min after drug administration; for increased antinociceptive potency vs comparator: writhing assay, 3a vs 3b, 4a vs 4b, 16b vs 7a (so in the source)
Procedure: Solutions of test compounds were prepared in sterile physiological 0.9% saline and further diluted to working doses in saline solution. Test compounds or saline (control) were administered by sc route in a volume of 10 μL/1 g of body weight. All doses are expressed in terms of salts. Separate groups of mice received the respective dose of compound, and individual mice were only used once for behavioral testing.
Writhing was induced in male CD1 mice by ip injection of a 0.6% acetic acid aqueous solution as described previously.[48],[62] Groups of mice were administered sc different doses of test compound or saline (control), and 5 min prior to testing (25 min after drug or saline), each animal received an ip injection of acetic acid solution. Each mouse was placed in individual transparent Plexiglas chambers, and the number of writhes was counted during a 10 min observation period. […] For the antagonism study, naloxone methiodide was sc co-administered with the respective opioid agonist, and writhing was assessed as described above.
(§1) Data were analyzed and graphically processed using the GraphPad Prism 5.0 Software (GraphPad Prism Software Inc., San Diego, CA). For in vitro assays, inhibition constant (Ki in nM), potency (EC50 in nM), and efficacy (% stimulation) values were determined from concentration–response curves by nonlinear regression analysis. The Ki values were determined by the method of Cheng and Prusoff.[66] In the [^35S]GTPγS binding assays, efficacy was determined relative to the reference full opioid agonists, DAMGO (MOR), DPDPE (DOR), and U69,593 (KOR). In vitro data are presented as mean ± SEM of three to four independent experiments each performed in duplicate. […] Each experimental group included six to seven mice. Data were statistically evaluated using one-way ANOVA with Tukey’s post hoc test for multiple comparisons with significance set at P < 0.05.

[2] = molecular target: T1, DOR (Homo sapiens, UniProt P41143); test: [35S]GTPγS binding assay, CHO-hDOR membranes; format: biochemical; details: for EC50: [35S]GTPγS, CHO human DOR membranes; for Emax: relative to reference full agonist DPDPE, read-out: DOR % stim.
T1 construct: host or cells: CHO (CHO-hDOR)
Procedure: (§2) Efficacies are presented as percentage stimulation relative to the standard full agonists, [D-Ala^2,N-Me-Phe4,Gly-ol^5]enkephalin (DAMGO for MOR),[53] [D-Pen^2,D-Pen^5]enkephalin (DPDPE for DOR)[54] and N-methyl-2-phenyl-N-[(5R,7S,8S)-7-(pyrrolidin-1-yl)-1-oxaspiro[4.5]dec-8-yl]acetamide (U69,593 for KOR).[55]
(§3) Membranes from CHO cells expressing human opioid receptors were prepared in 50 mM Tris-HCl buffer (pH 7.7) according to a previously described procedure.[64] Cells expressing human opioid receptors grown at confluence were removed from the culture plates by scraping, homogenized in 50 mM Tris buffer (pH 7.7), using a Polytron homogenizer, then centrifuged once and washed by an additional centrifugation at 27 000g for 15 min, at 4 °C. The final pellet was resuspended in Tris buffer and stored at −80 °C until use. Protein content of brain and cell membrane preparation homogenates was determined by the method of Bradford using bovine serum albumin as the standard.[65]
(§4) Binding of [^35S]GTPγS to membranes from CHO cells stably expressing the human opioid receptors was conducted according to the published procedures.[49],[64] Cell membranes (5–10 μg) in 20 mM HEPES, 10 mM MgCl2, and 100 mM NaCl (pH 7.4) were incubated with 0.05 nM [^35S]GTPγS, 10 μM GDP, and various concentrations of test compound in a final volume of 1 mL, for 60 min at 25 °C. Nonspecific binding was determined using 10 μM GTPγS, and the basal binding was determined in the absence of test ligand. Samples are filtered over glass Whatman glass GF/B fiber filters and counted as described for binding assays. All experiments were performed in duplicate and repeated at least three times.
as §1

[3] = molecular target: T2, KOR (Homo sapiens, UniProt P41145); test: [35S]GTPγS binding assay, CHO-hKOR membranes; format: biochemical; details: for EC50: [35S]GTPγS, CHO human KOR membranes, read-out: KOR EC50; for Emax: relative to reference full agonist U69,593, read-out: KOR % stim.; for functional profile at KOR (full/partial agonist): partial agonist <85% of the response to U69,593
T2 construct: host or cells: CHO (CHO-hKOR)
Procedure: as §2, §3, §4, §1

[4] = molecular target: T3, MOR (Homo sapiens, UniProt P35372); test: [35S]GTPγS binding assay, CHO-hMOR membranes; format: biochemical; details: for Emax: read-out: MOR % stim.; for EC50: [35S]GTPγS, CHO human MOR membranes, read-out: MOR EC50
T3 construct: host or cells: CHO (CHO-hMOR)
Procedure: as §2, §3, §4, §1

[5] = molecular target: T1, DOR; test: competition radioligand binding, CHO cell membranes expressing human DOR, [3H]diprenorphine
Procedure: as §3
(§5) Rat brain membranes were incubated with either [^3H]DAMGO (1 nM, 45 min, 35 °C) or [^3H][Ile^5,6]deltorphin II (0.5 nM, 45 min, 35 °C) for labeling MOR or DOR receptors, respectively. Guinea-pig brain membranes were incubated with [^3H]U69,593 (1 nM, 30 min, 30 °C) for labeling KOR. Binding assays with CHO cell membranes were conducted at 25 °C for 60 min using [^3H]DAMGO (1 nM) or [^3H]diprenorphine (0.2 nM) for labeling MOR or DOR, respectively. Nonspecific binding was determined using 10 μM naloxone (rodent brain) or 1–10 μM of the unlabeled counterpart of each radioligand (CHO cells). Reactions were terminated by rapid filtration through Whatman glass fiber GF/C filters. Filters were washed three times with 5 mL of ice-cold 50 mM Tris-HCl buffer (pH 7.4) using a Brandel M24R cell harvester (Gaithersburg, MD). Radioactivity retained on the filters was counted by liquid scintillation counting using a Beckman Coulter LS6500 (Beckman Coulter Inc., Fullerton, CA). All binding experiments were performed in duplicate and repeated at least three times.
aDetermined in competition radioligand binding assays using CHO cell membranes expressing
human MOR and DOR. Values represent the mean ± SEM of three independent experiments each

[6] = molecular target: T4, MOR (Rattus norvegicus, UniProt P33535); test: competition radioligand binding, rat brain membranes, [3H]DAMGO; details: for Ki: rat brain membranes, read-out: opioid receptor binding Ki MOR; for Ki ratio MOR/DOR/KOR: from Ki in rat (MOR, DOR) and guinea-pig (KOR) brain membranes
T4 construct: Membranes were prepared from Sprague-Dawley rat brains or guinea-pig brains according to the described procedures; tissue Labortierkunde und Laborgenetik, Medizinische Universität Wien; host or cells: Sprague-Dawley rat brain without cerebella
Procedure: (§6) Competition binding assays using rat brain (MOR and DOR) and guinea-pig brain (KOR) membranes (Table 1) were performed according to published procedures.[44],[49] […] In addition, we have assessed binding at the human opioid receptors stably transfected in Chinese hamster ovary (CHO) cells (Table S1).
(§7) Membranes were prepared from Sprague-Dawley rat brains or guinea-pig brains according to the described procedures.[44],[45] Brains without cerebella were homogenized on ice in 5 vol/wt of ice-cold 50 mM Tris-HCl buffer (pH 7.4) and diluted in 30 vol/wt of the same buffer. After centrifugation at 40 000g for 20 min at 4 °C, the pellets were resuspended in 30 vol/wt of 50 mM Tris-HCl buffer (pH 7.4) and incubated at 37 °C for 30 min. The centrifugation step described above was repeated, and the final pellets were resuspended in 5 vol/wt of 50 mM Tris-HCl buffer (pH 7.4) containing 0.32 M sucrose and stored at −80 °C until use.
as §5, §1

[7] = molecular target: T5, DOR (Rattus norvegicus, UniProt P33533); test: competition radioligand binding, rat brain membranes, [3H][Ile5,6]deltorphin II; details: rat brain membranes; read-out: opioid receptor binding Ki DOR
T5 construct: Membranes were prepared from Sprague-Dawley rat brains or guinea-pig brains according to the described procedures; tissue Labortierkunde und Laborgenetik, Medizinische Universität Wien; host or cells: Sprague-Dawley rat brain without cerebella
Procedure: as §6, §7, §5, §1

[8] = molecular target: T6, KOR (Cavia porcellus, UniProt P41144); test: competition radioligand binding, guinea-pig brain membranes, [3H]U69,593; details: guinea-pig brain membranes; read-out: opioid receptor binding Ki KOR
T6 construct: Membranes were prepared from Sprague-Dawley rat brains or guinea-pig brains according to the described procedures; tissue Labortierkunde und Laborgenetik, Medizinische Universität Wien; host or cells: guinea-pig brain without cerebella
Procedure: as §6, §7, §5, §1

[9] = relative to reference full agonist DAMGO

SMILES	ED50 [1]	ED50 (95% CI) [1]	increased antinociceptive potency vs comparator [1]	EC50 [2]	Emax [2]	EC50 [3]	Emax [3]	Emax [4, 9]	Ki [5]	functional profile at KOR (full/partial agonist) [3]	Ki [6]	Ki [7]	Ki [8]	EC50 [4]	Ki ratio MOR/DOR/KOR [6]	increase in MOR binding affinity vs comparator ([6]; rat brain, 17b vs 4b, 16a/b vs 7a/b, 22a/b vs 7a, 7b and 9b, 14a vs 14b)	functional profile at MOR (full/partial agonist) ([4]; full agonist ≥85% of the response to DAMGO)	MOR % stim. [4, 9]
CO[C@@]12CC[C@H](N[C@@H](C)C(=O)O)[C@@H]3Oc4c(O)ccc5c4[C@@]31CCN(C)[C@@H]2C5 [Compound 3a]	< 0.02 mg/kg	16.0 (5.45–47.0) μg/kg	5 times	9.55 ± 4.47 nM	93 ± 9%	214 ± 71 nM	51 ± 3%	97 ± 5%	26 ± 3.5 nM	–	–	–	–	–	–	–	–	–
CO[C@@]12CC[C@@H](N[C@@H](C)C(=O)O)[C@@H]3Oc4c(O)ccc5c4[C@@]31CCN(C)[C@@H]2C5 [Compound 3b]	0.0863 mg/kg	–	–	5.2 ± 1.7 nM	104 ± 6%	392 ± 160 nM	64 ± 9%	87 ± 6%	8.43 ± 2.1 nM	partial agonist	–	–	–	–	–	–	–	–
CO[C@@]12CC[C@H](N[C@@H](Cc3ccc(O)cc3)C(=O)O)[C@@H]3Oc4c(O)ccc5c4[C@@]31CCN(C)[C@@H]2C5.Cl.Cl [Compound 9a, (2S)-2-[(4,5α-Epoxy-3-hydroxy-14β-methoxy-17-methylmorphinan-6α-yl)amino]-3-(4-hydroxyphenyl)propionic Acid Dihydrochloride]	< 0.02 mg/kg	14.6 (5.15–41.7) μg/kg	–	1.76 ± 0.22 nM	88 ± 6%	100 ± 6 nM	62 ± 8%	92 ± 2%	–	–	0.83 ± 0.04 nM	2.18 ± 0.98 nM	39.5 ± 0.2 nM	1.87 ± 0.44 nM	–	–	–	–
CO[C@@]12CC[C@H](N[C@@H](CC(=O)O)C(=O)O)[C@@H]3Oc4c(O)ccc5c4[C@@]31CCN(C)[C@@H]2C5 [Compound 13a, (2S)-2-[(4,5α-Epoxy-3-hydroxy-14β-methoxy-17-methylmorphinan-6α-yl)-amino]butanedioic Acid Dihydrochloride]	0.0382 mg/kg	–	–	10.1 ± 3.8 nM	97 ± 3%	2990 ± 659 nM	83 ± 17%	90 ± 7%	–	–	1.36 ± 0.05 nM	14.6 ± 3.6 nM	50.2 ± 9.2 nM	4.1 ± 1.29 nM	1/11/37	–	–	–
CO[C@@]12CC[C@@H](N[C@@H](C(=O)O)C(C)C)[C@@H]3Oc4c(O)ccc5c4[C@@]31CCN(C)[C@@H]2C5 [Compound 16b]	< 0.02 mg/kg	14.0 (5.90–33.3) μg/kg	8 times	1.3 ± 0.64 nM	99 ± 0.2%	1280 ± 283 nM	98 ± 16%	101%	–	full agonists	1.02 ± 0.07 nM	1.68 ± 0.16 nM	159 ± 17 nM	2.38 ± 0.77 nM	–	2–3 times	full agonist	101 ± 5%
CO[C@@]12CC[C@H](NCCC(=O)O)[C@@H]3Oc4c(O)ccc5c4[C@@]31CCN(C)[C@@H]2C5 [Compound 20a, 3-[(4,5α-Epoxy-3-hydroxy-14β-methoxy-17-methylmorphinan-6α-yl)amino]propionic Acid Dihydrochloride]	0.0312 mg/kg	–	–	96.4 ± 8.7 nM	97 ± 2%	186 ± 15 nM	78 ± 9%	99 ± 7%	–	–	1.3 ± 0.08 nM	60 ± 1.9 nM	182 ± 8 nM	3.52 ± 1.65 nM	1/46/140	–	–	–
CO[C@@]12CC[C@H](NCCCC(=O)O)[C@@H]3Oc4c(O)ccc5c4[C@@]31CCN(C)[C@@H]2C5 [Compound 21a]	0.0419 mg/kg	–	–	34.4 ± 6.5 nM	103 ± 1%	2030 ± 253 nM	104 ± 9%	103 ± 4%	–	–	0.77 ± 0.07 nM	12.5 ± 0.7 nM	45.6 ± 4.4 nM	2.88 ± 0.82 nM	1/16/59	–	–	–
